What was measured:
[1] = Photoacoustic spectra of contaminated heparin in the presence of methylene blue; details: 5 wt. % contaminated heparin
Description: In one exemplary implementation, the photoacoustic imaging system used for measurements is a Vevo 2100 commercial instrument (Visualsonics). The scanner is equipped with a 21 MHz-centered transducer (LZ250) and a Q-switched Nd:YAG laser. The laser uses an optical parameteric oscillator and second harmonic generator to generate a tunable laser between 680 and 970 nm with a 1 nm step size and a pulse of 4 to 6 ns at 20 Hz. The peak energy is 45±5 mJ at 20 Hz at the source. The full field-of-view is 14-23 mm wide. The acquisition rate is 5 frames per second. The samples were prepared in small tubing fixed in a self-developed phantom holder which was aligned at ˜10 mm under the transducer. The laser energy was calibrated and optimized using the build-in energy power meter and software before measurements. 100% laser energy was used with 21 MHz frequency and the gain was optimized from 10-40 dB to obtain 3D scans at 680-850 nm as well as photoacoustic spectra from 680 to 850 nm.
1×PBS solution was prepared via dissolving one PBS tablet into 200 mL deionized water. The 2 mM methylene blue was prepared fresh by dissolving reagent-grade powder in PBS followed by sonication for 30 minutes at 40 C and then filtering through 0.22 μm. The 0.4 mM methylene blue was prepared by dissolving 2 mM methylene blue with PBS. A batch of OSCS/heparin mixture that simulates OSCS contaminated heparin was prepared at the following steps: 100 μL of 50, 25, 5, 2.5, 0.5, 0.25 μg/mL OSCS, and PBS was added into 100 uL 1000 μg/mL heparin prepared in PBS solution, respectively. The working concentration of OSCS in the above solutions was 25, 12.5, 2.5, 1.25, 0.25, 0.125, 0.025, and 0 μg/mL OSCS, respectively, and the working concentration of heparin is 500 μg/mL. In other words, the heparin solution was contaminated by 5, 2.5, […], 0.05, 0.025, and 0%. The contrast signal of methylene blue/heparin mixture was optimized at the combination of 0.4 mM methylene blue and […]. […]
Data analysis were performed using the scanner's built-in software. […] The average and standard deviation were calculated. […]

Antithrombin = Antithrombin (Homo sapiens, UniProt P01008); details: cited from earlier work
[2] = Photoacoustic response of nanoparticle-bound methylene blue coating to heparin and protamine; details: 50 U/mL heparin-treated device, protamine 8 mg/mL
Method: The surface charge of these nanoparticle is −23 mV, which is too negative to allow association between the nanoparticle-bound dye and negatively charged heparin. Therefore, the charge of the particle was changed to produce a material that was both stable and responsive to heparin. To tune the nanoparticles, the same were treated with (3-mercaptopropyl) trimethoxysilane (MPTMS) to adjust the zeta potential to −15 mV (SSNP-SH). This material was used with agar gel to create a coating on a catheter tube.
More importantly, the methylene blue on these modified nanoparticles remain responsive to heparin with 51% more photoacoustic signal at 10 U/mL heparin than PBS for 1 h incubation. The signal enhancement was stable after constant imaging at 680 nm for 9 min (RSD<4%) This system was also reversible. When the 50 U/mL-treated device was reversed with protamine (8 mg/mL), the signal decreased by 42% versus no protamine treatment. The higher signal of the heparin-treated hybrid versus PBS-treated hybrid is likely due to interactions between methylene blue and heparin, which increases the photoacoustic signal and decreases diffusion of this complex and free methylene blue into solution.

Sequence of Antithrombin (P01008 33-464): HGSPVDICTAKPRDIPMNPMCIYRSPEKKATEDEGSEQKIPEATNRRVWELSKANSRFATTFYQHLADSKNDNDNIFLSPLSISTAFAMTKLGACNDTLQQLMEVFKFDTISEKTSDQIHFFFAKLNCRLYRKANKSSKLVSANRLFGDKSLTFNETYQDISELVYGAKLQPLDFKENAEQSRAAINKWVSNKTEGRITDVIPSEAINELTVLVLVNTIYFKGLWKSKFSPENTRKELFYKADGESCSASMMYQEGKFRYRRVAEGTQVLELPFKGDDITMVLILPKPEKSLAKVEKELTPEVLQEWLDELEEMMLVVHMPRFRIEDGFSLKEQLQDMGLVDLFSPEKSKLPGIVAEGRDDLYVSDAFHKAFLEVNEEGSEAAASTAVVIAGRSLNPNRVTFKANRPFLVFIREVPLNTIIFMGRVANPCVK

| Substance | 715 nm peak amplified compared to pure heparin in methylene blue [1] [%] | other results |
| --- | --- | --- |
| oversulfated chondroitin sulfate [OSCS] | 400 | – |
| heparin | – | increase of the activity of antithrombin (Antithrombin): 10^3 fold |
| protamine sulfate | – | signal decrease versus no protamine treatment [2]: 42% |
| dermatan sulfate [DS] | 475 | – |
| chondroitin sulfate [CS] | 476 | – |
